According to ChEMBL document CHEMBL1201862, “PubChem BioAssay data set” (2004):
Active and inactive are the calls of the source.

Legend:
[1] = target: 72 kDa type IV collagenase (Homo sapiens, UniProt P08253); experiment: Dose Response validation of uHTS RPN11 inhibitor hits using a MMP-2 Fluorescence assay.; type: functional
[2] = target: 26S proteasome non-ATPase regulatory subunit 14 (Homo sapiens, UniProt O00487); experiment: inhibition of proteasome subunit RPN11 – biochemical, fluorescence polarization, uHTS hits, confirmation (AID 602368); type: functional
26S proteasome non-ATPase regulatory subunit 14, sequence (O00487 whole entry): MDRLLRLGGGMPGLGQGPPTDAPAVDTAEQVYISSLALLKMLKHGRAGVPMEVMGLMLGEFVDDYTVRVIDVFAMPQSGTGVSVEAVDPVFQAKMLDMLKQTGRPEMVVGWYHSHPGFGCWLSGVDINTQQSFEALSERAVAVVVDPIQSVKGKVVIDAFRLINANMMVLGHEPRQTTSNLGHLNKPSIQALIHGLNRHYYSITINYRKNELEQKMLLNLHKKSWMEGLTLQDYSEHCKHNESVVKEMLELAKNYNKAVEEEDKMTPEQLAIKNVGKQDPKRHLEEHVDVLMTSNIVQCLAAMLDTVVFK

[3] = target: Heat shock protein HSP 90-alpha (Homo sapiens, UniProt P07900); type: functional, organism-based
Prothrombin = Prothrombin (Bos taurus, UniProt P00735); experiment: thrombin inhibition, dose response, biochemical, fluorescence polarization, uHTS hits (AID 602369); type: functional
[4] = inhibitors of Vif binding to APOBEC3G peptide, primary screen, biochemical, TR-FRET, GST-Vif 1-94, biotin-A3G peptide, dose response retest (AID 1117319); type: functional;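 also: TR-FRET signal of purified GST-Vif binding a biotinylated A3G peptide; inhibitors lower the FRET signal by blocking Vif and A3G binding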
[5] = target: T1, DNA repair protein RAD52 homolog (Homo sapiens, UniProt P43351); type: functional, biochemical
T1 sequence (P43351 whole entry): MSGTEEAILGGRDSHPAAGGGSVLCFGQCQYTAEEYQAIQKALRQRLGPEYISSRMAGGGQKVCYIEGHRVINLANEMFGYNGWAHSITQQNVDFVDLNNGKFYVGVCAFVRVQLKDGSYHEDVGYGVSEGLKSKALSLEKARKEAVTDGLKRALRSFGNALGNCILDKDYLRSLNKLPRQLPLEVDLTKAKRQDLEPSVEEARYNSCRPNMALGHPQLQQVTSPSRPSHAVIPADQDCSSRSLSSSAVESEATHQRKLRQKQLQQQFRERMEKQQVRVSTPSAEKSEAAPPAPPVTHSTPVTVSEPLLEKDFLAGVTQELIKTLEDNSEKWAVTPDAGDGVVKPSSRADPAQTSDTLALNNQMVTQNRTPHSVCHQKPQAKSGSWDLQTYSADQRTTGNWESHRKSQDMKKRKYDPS

[6] = target: T2, Apoptotic protease-activating factor 1 (Homo sapiens, UniProt O14727); type: functional
T2 sequence (O14727 whole entry): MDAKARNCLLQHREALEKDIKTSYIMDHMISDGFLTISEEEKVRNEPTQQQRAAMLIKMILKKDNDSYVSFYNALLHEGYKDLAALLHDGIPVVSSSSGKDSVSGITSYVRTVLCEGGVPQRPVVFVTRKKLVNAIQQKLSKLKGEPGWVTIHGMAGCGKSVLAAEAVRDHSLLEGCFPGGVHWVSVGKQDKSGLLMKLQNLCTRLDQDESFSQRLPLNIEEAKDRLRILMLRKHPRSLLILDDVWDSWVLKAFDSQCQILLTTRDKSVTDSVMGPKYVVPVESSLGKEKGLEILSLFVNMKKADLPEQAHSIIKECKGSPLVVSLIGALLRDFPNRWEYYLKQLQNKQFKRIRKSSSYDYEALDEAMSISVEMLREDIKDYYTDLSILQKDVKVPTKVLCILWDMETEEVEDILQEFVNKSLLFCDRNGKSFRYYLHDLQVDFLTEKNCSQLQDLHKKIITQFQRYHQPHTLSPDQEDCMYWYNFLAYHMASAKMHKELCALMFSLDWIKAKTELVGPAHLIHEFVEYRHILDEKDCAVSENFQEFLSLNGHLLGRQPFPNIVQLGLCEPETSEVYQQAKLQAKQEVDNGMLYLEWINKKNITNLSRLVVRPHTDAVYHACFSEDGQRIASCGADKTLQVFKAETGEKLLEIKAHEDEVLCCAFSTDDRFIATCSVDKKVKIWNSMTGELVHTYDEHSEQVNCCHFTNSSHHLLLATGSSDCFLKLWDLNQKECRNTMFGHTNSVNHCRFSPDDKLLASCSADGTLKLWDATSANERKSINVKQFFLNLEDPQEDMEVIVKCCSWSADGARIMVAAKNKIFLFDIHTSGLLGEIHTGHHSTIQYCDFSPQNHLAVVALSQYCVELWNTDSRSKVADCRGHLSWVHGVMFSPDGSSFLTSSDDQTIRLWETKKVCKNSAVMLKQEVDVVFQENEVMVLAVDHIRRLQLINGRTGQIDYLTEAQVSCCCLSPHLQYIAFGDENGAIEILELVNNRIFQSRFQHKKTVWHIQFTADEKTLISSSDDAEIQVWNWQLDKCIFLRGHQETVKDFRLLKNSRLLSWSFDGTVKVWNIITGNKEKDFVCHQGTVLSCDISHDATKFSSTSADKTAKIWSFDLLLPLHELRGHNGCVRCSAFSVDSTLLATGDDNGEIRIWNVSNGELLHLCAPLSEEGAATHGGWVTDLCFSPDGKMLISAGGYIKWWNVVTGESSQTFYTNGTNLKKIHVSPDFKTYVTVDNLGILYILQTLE

[7] = target: T3, DNA repair and recombination protein RAD54-like (Homo sapiens, UniProt Q92698); experiment: inhibitors of human RAD54 branch migration, confirmation, biochemical, fluorescence, cherry-picked samples, dose series (AID 651657); type: functional
T3 sequence (Q92698 whole entry): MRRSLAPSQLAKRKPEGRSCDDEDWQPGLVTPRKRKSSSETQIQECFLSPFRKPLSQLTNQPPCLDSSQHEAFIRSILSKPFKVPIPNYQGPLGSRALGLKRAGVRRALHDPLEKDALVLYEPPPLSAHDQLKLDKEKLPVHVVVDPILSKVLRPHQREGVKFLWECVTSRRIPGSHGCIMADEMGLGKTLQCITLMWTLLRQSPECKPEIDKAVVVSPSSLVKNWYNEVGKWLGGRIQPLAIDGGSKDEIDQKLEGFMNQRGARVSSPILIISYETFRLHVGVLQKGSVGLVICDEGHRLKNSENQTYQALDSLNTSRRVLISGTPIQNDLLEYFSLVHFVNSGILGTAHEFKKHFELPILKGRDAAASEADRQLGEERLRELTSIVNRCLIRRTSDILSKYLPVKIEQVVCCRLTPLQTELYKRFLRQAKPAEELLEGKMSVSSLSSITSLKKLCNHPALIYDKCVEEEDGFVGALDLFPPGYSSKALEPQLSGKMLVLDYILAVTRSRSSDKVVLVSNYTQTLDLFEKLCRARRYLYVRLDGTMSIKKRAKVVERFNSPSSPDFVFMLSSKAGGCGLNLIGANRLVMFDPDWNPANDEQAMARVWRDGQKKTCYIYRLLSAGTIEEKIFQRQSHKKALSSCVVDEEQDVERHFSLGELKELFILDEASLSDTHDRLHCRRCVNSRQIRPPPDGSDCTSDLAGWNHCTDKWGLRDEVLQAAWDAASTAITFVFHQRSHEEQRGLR

Fatty acid synthase [8] = target: T4, Fatty acid synthase (Homo sapiens, UniProt P49327); experiment: FAS thioesterase domain inhibitors, dose response, biochemical, kinetic fluorescence intensity (AID 624326); type: functional;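 also: rate of fluorescence rise from hydrolysis of a fluorogenic O-methyl fluorescein ester substrate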
T4 sequence (P49327 whole entry, the tested form may be a part): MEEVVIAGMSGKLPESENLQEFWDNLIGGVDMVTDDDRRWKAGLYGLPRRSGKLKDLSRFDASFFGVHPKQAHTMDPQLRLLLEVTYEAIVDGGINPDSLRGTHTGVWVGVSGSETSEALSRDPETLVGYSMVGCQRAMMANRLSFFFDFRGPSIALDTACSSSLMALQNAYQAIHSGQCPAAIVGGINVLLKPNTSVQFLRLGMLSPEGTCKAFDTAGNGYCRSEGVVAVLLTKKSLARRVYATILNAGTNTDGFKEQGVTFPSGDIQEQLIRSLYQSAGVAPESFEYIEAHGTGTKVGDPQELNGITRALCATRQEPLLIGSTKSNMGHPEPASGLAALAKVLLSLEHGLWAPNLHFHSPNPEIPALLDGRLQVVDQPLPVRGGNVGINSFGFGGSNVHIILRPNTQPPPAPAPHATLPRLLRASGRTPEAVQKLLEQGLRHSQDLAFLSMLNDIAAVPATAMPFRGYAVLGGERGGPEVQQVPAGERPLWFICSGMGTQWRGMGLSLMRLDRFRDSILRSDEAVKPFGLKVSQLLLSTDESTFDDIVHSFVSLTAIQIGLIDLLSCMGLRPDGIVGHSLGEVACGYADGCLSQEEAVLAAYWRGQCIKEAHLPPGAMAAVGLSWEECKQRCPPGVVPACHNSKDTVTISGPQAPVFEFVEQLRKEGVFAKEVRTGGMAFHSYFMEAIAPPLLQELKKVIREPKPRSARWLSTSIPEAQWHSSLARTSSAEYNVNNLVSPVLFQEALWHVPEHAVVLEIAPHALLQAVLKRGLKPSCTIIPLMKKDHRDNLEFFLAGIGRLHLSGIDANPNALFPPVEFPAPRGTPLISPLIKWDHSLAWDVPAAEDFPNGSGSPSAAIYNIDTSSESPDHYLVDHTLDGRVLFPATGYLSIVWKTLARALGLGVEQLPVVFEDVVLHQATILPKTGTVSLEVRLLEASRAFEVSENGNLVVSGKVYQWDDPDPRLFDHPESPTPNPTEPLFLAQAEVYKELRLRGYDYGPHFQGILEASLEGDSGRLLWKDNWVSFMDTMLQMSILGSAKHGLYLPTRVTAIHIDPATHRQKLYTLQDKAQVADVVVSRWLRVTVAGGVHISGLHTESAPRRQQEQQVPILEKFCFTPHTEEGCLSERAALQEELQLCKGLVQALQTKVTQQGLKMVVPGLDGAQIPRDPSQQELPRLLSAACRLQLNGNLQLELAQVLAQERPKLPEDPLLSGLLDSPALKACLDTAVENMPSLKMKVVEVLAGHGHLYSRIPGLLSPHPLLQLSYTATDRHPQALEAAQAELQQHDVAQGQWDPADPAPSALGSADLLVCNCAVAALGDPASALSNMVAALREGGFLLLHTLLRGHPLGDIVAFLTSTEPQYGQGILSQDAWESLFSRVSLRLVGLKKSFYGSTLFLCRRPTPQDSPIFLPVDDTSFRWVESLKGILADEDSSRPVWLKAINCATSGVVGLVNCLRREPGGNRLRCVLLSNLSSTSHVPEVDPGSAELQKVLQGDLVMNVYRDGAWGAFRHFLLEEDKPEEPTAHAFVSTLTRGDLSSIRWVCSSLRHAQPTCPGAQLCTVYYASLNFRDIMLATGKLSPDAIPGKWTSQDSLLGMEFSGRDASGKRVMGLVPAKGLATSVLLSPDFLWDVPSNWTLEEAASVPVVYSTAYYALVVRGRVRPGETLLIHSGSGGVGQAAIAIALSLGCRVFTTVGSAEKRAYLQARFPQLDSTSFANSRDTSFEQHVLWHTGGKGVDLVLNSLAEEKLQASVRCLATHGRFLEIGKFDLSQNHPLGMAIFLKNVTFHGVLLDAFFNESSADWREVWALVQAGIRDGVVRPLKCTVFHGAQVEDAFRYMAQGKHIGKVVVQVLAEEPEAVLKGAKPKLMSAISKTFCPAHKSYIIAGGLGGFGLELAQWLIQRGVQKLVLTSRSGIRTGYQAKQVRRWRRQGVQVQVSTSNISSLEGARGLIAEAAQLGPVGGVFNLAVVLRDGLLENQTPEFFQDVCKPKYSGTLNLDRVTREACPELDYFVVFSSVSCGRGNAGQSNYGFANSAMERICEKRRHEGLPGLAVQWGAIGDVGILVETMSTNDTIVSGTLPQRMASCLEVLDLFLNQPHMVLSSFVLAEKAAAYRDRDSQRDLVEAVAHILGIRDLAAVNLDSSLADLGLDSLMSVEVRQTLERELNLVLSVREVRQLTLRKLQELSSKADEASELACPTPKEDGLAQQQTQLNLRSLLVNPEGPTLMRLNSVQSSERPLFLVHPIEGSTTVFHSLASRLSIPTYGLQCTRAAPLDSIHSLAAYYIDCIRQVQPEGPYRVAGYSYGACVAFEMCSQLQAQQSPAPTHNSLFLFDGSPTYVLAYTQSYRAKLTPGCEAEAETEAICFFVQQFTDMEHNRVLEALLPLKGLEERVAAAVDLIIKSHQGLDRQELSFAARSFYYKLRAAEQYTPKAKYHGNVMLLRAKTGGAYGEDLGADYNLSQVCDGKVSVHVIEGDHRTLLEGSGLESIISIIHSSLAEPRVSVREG

Fatty acid synthase [9] = target: T4, Fatty acid synthase; experiment: FAS thioesterase domain inhibitors, dose response, biochemical, endpoint fluorescence intensity, uHTS hits (AID 624327); type: functional;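 also: fluorescence from hydrolysis of an O-methyl fluorescein acyl ester substrate by the enzyme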
[10] = PAX2 cell-based inhibition, dose response, selectivity assay for PAX8 inhibitor project, plate reader, dry powder samples (AID 743048); type: functional;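 also: HEK293 cells carrying a WT1 promoter luciferase reporter driven by expressed Pax2; potency is for inhibition of Pax2 driven reporter signal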
[11] = cytotoxicity in OVCAR8 ovarian cancer cells, dose response, PAX8 project, cell-based, plate reader, dry powder samples (AID 743197); type: functional; conditions: OVCAR-8
[12] = cytotoxicity dependent on PAX8, dose response, cell-based, plate reader, dry powder (AID 743049); type: functional
Paired box protein Pax-8 = Paired box protein Pax-8 (Homo sapiens, UniProt Q06710); experiment: inhibitors of PAX8-driven TPO luciferase reporter, dose response, RMG-I cells, cherry-pick (AID 687027); type: functional, cell-based;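 also: luciferase reporter driven by Pax8 target thyroperoxidase promoter measured by SteadyGlo luminescence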
Paired box protein Pax-8, sequence (Q06710 whole entry): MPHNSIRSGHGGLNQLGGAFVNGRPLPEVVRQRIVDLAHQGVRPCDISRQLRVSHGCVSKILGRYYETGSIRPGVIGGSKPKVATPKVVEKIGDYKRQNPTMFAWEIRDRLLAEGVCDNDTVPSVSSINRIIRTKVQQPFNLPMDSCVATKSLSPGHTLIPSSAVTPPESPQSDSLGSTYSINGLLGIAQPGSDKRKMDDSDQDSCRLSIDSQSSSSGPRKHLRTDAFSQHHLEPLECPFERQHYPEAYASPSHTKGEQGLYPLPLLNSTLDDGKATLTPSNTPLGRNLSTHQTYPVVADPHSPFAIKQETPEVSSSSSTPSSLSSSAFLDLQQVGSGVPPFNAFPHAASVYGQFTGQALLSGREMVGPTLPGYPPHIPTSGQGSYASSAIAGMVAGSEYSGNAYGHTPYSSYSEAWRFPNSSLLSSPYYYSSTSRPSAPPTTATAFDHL

Leucine aminopeptidase = target: T5, Leucine aminopeptidase (Plasmodium falciparum 3D7, UniProt Q8IL11); experiment: P. falciparum M17LAP inhibitors, primary screen, biochemical, fluorogenic H-Leu-NHMec substrate, 1536-well (AID 1619); type: functional
T5 sequence (Q8IL11 whole entry): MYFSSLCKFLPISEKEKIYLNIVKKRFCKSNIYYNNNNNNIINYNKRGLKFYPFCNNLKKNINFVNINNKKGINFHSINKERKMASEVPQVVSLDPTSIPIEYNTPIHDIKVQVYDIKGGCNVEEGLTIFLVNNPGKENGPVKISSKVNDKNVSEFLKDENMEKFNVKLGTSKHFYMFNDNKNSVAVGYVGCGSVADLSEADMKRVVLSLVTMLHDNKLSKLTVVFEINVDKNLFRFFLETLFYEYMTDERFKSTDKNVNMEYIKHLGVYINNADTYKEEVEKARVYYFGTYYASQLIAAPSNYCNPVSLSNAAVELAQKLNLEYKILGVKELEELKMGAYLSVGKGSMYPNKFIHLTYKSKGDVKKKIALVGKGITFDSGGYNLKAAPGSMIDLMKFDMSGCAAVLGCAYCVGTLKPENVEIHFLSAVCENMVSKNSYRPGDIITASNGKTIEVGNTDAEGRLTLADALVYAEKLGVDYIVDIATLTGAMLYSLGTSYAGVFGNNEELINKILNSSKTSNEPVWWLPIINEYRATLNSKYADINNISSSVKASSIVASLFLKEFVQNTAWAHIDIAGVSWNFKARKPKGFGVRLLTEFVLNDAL

H9c2 = experiment: cells; type: functional, cell-based; conditions: Rattus norvegicus, H9c2, Myocardium;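 also: confirmatory concentration-response retest of ultra-high-throughput screening hits for modulation of myocardial damage; cell death induced by hydrogen peroxide oxidative stress; compound pretreatment for 60 min then peroxide exposure for 2 h; potency is for protecting the cells against peroxide damage rather than for killing them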
H4 = experiment: Luminescence Cell-Based Dose Response HTS to Identify Activators of 5'UTR Stem-Loop Driven Prion Protein mRNA Translation in H4 Neuroglioblastoma Cells. [Related pubchem assays: 1829 (Project Summary), 1814 (Primary HTS)]; type: functional; conditions: Homo sapiens
[13] = Luminescence Cell-Based Dose Confirmation HTS to Identify Activators of 5'UTR Stem-Loop Driven Alpha-Synuclein mRNA Translation in H4 Neuroglioblastoma Cells. [Related pubchem assays: 1829 (Project Summary), 1814 (Primary HTS)]; type: functional
[14] = Luminescence Cell-Based Dose Response HTS to Identify Activators of Luciferase Translation or Activity in H4 […] Cells. [Related pubchem assays: 1829 (Project Summary), 1814 (Primary HTS)]; type: functional

72 kDa type IV collagenase, sequence (P08253 whole entry): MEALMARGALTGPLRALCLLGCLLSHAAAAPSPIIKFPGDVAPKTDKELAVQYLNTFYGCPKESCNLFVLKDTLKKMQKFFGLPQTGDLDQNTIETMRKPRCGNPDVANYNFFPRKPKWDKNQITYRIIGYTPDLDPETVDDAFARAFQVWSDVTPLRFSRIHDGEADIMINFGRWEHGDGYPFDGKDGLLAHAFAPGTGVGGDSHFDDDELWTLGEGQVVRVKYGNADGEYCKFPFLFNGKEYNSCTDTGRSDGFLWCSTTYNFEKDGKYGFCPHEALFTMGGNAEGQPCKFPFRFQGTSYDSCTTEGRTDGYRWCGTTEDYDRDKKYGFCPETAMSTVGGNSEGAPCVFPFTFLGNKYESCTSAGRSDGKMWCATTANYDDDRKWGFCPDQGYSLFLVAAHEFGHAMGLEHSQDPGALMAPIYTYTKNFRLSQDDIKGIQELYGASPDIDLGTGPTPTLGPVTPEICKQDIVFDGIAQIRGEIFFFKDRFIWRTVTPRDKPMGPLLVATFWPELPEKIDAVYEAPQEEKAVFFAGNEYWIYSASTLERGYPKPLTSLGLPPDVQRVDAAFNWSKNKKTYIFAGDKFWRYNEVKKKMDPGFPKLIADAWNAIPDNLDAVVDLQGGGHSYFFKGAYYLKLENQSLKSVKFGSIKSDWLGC

Cc1cc(N=Nc2ccccc2C(=O)O)c(C)c(C)c1O
IC50 [1]: 43.4 µM (active) | IC50 [2]: 25.4 µM (active) | AC50 [3]: 4.36 µM (active) | IC50 (Prothrombin): 34.2 µM (active)

CC1(C)CCN(Cc2ccccc2)C1CC#N (centres undefined)
IC50 [4]: > 100 µM (active)

Cc1csc(N2CCN(c3cc4c(cc3Cl)nc(-c3ccncc3)n4CCCN3CCCC3)CC2)n1
AC50 [5]: 4.61 µM (active)

CCOC(=O)c1c(CN(C)C)n(C)c2c(O)c(N=NC(N)=O)c3ccc(Br)cc3c12
IC50 [6]: 12.1 µM (active) | AC50 [5]: 11.6 µM (active)

CN(C)CCCNc1nc2cc(-c3ccc(C(=O)N4CCN(C)CC4)cc3)sc2c(=O)n1C
AC50 [7]: 47.7 µM (active)

CC1(C)Oc2ccc(C(=O)NC3CCCC3)cc2N(CC(=O)N2CCOCC2)C1=O
IC50 [4]: > 100 µM (active)

CCc1nc2c(OCc3ccc(Cl)cc3Cl)cccn2c1N(C=O)Cc1ccc(OC)cc1
IC50 (Fatty acid synthase [8]): 1.46 µM (active) | IC50 (Fatty acid synthase [9]): 2.45 µM (active)

COc1ccc(NCc2nnc(SCC(=O)N3CCCc4ccccc43)o2)cc1
IC50 [4]: > 100 µM (active)

COc1ccc(S(=O)(=O)Nc2ccc3c(c2)CC(=O)N([C@@H](C)CO)C[C@@H](C)[C@@H](CN(C)Cc2ccc(-c4ccccc4)cc2)O3)cc1
AC50 [10]: 42 µM (active) | AC50 [11]: > 70 µM (inactive) | AC50 [12]: 44.2 µM (active) | AC50 (Paired box protein Pax-8): 24.6 µM (active)

NC(=O)c1c(NC(=S)Nc2ccc(F)cc2)sc2c1CCCC2
IC50 (Leucine aminopeptidase): 92 µM (active)

O=C(CSc1nnc[nH]1)Nc1ccc(Br)cc1F
IC50 (Leucine aminopeptidase): 29.8 µM (active)

Cc1ccc(C(=O)NCC(=O)OCc2nnc(-c3ccc([N+](=O)[O-])cc3)o2)s1
IC50 (Fatty acid synthase [8]): 12.7 µM (active) | IC50 (Fatty acid synthase [9]): 15.1 µM (active)

CCN(Cc1ccccc1)C(=O)c1cnc2ccc(S(=O)(=O)N(C)CCC#N)cc2c1O
IC50 (Fatty acid synthase [8]): 7.6 µM (active) | IC50 (Fatty acid synthase [9]): 12 µM (active)

CCN1C(=O)N(CC)C(=O)C2(Cc3ccccc3N3CCN(c4ccccc4)CC32)C1=O (centres undefined)
IC50 [4]: > 100 µM (active)

COc1ccc(NC(=O)CSC2CC(=O)N(c3ccc4c(c3)OCCO4)C2=O)cc1 (centres undefined)
IC50 (Leucine aminopeptidase): 16.1 µM (active)

COC(=O)c1c(NC(=O)C2C3CCC(O3)C2C(=O)O)sc2c1CCCCCC2 (centres undefined)
IC50 (Leucine aminopeptidase): 48.9 µM (active)

O=C(NCCCCc1ccccc1)c1cccc([N+](=O)[O-])c1
IC50 (Fatty acid synthase [8]): 8.43 µM (active) | IC50 (Fatty acid synthase [9]): 11.1 µM (active)

COc1ccc(CCn2c(=N)c(C(=O)NCC3CCCO3)cc3c(=O)n4cccc(C)c4nc32)cc1OC (centres undefined)
IC50 (H9c2): > 79 µM (inactive) | AC50 [7]: 14.4 µM (active)

CCN(CC)CCCN(C(=O)c1ccc(Br)cc1)c1nc(-c2ccc(OC)cc2)cs1
AC50 [5]: 17.2 µM (active)

CCOc1ccc2nc(NC(=O)Cn3[nH]c(=O)c4ccccc4c3=O)sc2c1
IC50 [1]: > 100 µM (inactive) | EC50 (H4): 54.3 µM (active) | EC50 [13]: > 120 µM (not active) | IC50 [2]: 39.7 µM (active) | IC50 (Prothrombin): 90.4 µM (active) | EC50 [14]: 5.14 µM (active)

O=C(NCCCN1CCOCC1)c1cnn2c(-c3ccccc3)cc(-c3ccccc3)nc12
AC50 [7]: 27 µM (active)

CCc1cc2c(=O)n(-c3ccc(C)cc3)cnc2s1
IC50 [4]: > 100 µM (active)
